Measured values published in ChEMBL document CHEMBL2417368, “Structure-based discovery of novel amide-containing nicotinamide phosphoribosyltransferase (nampt) inhibitors” (J Med Chem, 2013).
Active and inactive are the calls of the source. The calls are words filed in the database; no cut-off is given here.

What was measured:
[1] = system: U-251; experiment: Antitumor activity against human U251 cells xenografted in athymic nu/nu mouse assessed as reduction in tumor size at 25 mg/kg, po QD for 7 days measured on day 13; type: functional, organism-based; design: dose 25 mg/kg
[2] = system: Mus musculus; experiment: Toxicity in human U251 cells xenografted in athymic nu/nu mouse assessed as change in body weight at 25 mg/kg, po QD for 7 days; type: organism-based, U-251; design: dose 25 mg/kg, route oral; settings: in vivo, 168 h
[3] = AUC (infinity) in NCR nude mouse at 10 mg/kg, po; type: ADME, organism-based; design: time infinity, dose 10 mg/kg, route oral; settings: plasma
[4] = Oral bioavailability in NCR nude mouse at 10 mg/kg; type: ADME, organism-based; settings: in vivo
[5] = Volume of distribution at steady state in NCR nude mouse at 5 mg/kg, iv; type: ADME, organism-based; design: dose 5 mg/kg, route intravenous; settings: in vivo, read-out: Vdss
[6] = Clearance in NCR nude mouse plasma at 5 mg/kg, iv; type: ADME, organism-based; design: dose 5 mg/kg, route intravenous
[7] = Tmax in NCR nude mouse at 10 mg/kg, po; type: ADME, organism-based; design: dose 10 mg/kg, route oral; settings: in vivo
[8] = Cmax in NCR nude mouse at 10 mg/kg, po; type: ADME, organism-based; design: dose 10 mg/kg, route oral; settings: in vivo
[9] = system: HCT-116; experiment: Antiproliferative activity against human HCT116 cells assessed as cell viability after 72 hrs; type: functional, cell-based; settings: HCT-116, 72 h
[10] = system: PC-3; experiment: Antiproliferative activity against human PC3 cells assessed as cell viability after 72 hrs; type: functional, cell-based; settings: PC-3, 72 h
[11] = system: MIA PaCa-2; experiment: Antiproliferative activity against human MIAPaCa2 cells assessed as cell viability after 72 hrs; type: functional, cell-based; settings: MIA PaCa-2, 72 h
[12] = system: HT-1080; experiment: Antiproliferative activity against human HT1080 cells assessed as cell viability after 72 hrs; type: functional, cell-based; settings: HT-1080, 72 h
[13] = system: U-251; experiment: Antiproliferative activity against human U251 cells assessed as cell viability after 72 hrs by SRB assay; type: functional, cell-based; settings: U-251, 72 h
[14] = Fraction unbound in mouse plasma at 5 uM after 4 hrs by LC-MS/MS analysis; type: ADME, cell-free
[15] = Fraction unbound in human plasma at 5 uM after 4 hrs by LC-MS/MS analysis; type: ADME, cell-free
[16] = Intrinsic clearance in human hepatocytes at 1 uM after 10 mins by LC-MS/MS analysis; type: ADME, cell-based, Hepatocyte; settings: read-out: CLH
[17] = Intrinsic clearance in CD-1 mouse hepatocytes at 1 uM after 10 mins by LC-MS/MS analysis; type: ADME, cell-based, Hepatocyte; settings: read-out: CLH
[18] = Metabolic stability in human liver microsomes assessed as compound remaining at 1 uM after 30 mins LC-MS analysis; type: ADME, Microsome; settings: liver microsomes, read-out: Stability
[19] = Metabolic stability in mouse liver microsomes assessed as compound remaining at 1 uM after 30 mins LC-MS analysis; type: ADME, Microsome; settings: liver microsomes, read-out: Stability
[20] = system: A2780; experiment: cells; settings: Homo sapiens, A2780, 72 h
[21] = in vitro; settings: dog, MDCK

O=C(NCc1ccc(S(=O)(=O)c2cc(F)cc(F)c2)cc1)c1ccc2nccn2c1
Activity [1]: Active | Activity [2]: Non-toxic | AUC(0-inf) [3]: 3.06 µM·h | bioavailability [4]: 41.1% | Vd [5]: 6.7 L/kg | clearance [6]: 52.4 mL/min/kg | Tmax [7]: 15 min | Cmax [8]: 1210 nM | IC50 [9]: 2 nM | IC50 [10]: 2.7 nM | IC50 [11]: 7.4 nM | IC50 [12]: 2.1 nM | IC50 [13]: 1.8 nM | fraction unbound at 4 h, 5 µM [14]: 0.067 | fraction unbound at 4 h, 5 µM [15]: 0.06 | CLint scaled at 1 µM [16]: 10 mL/min/kg | CLint scaled at 1 µM [17]: 42 mL/min/kg | remaining at 0.5 h, 1 µM [18]: 53% | remaining at 0.5 h, 1 µM [19]: 39% | IC50 [20]: 2 nM | Papp A→B at 10 µM [21]: 12 ×10⁻⁶ cm/s
